From US20170023576A1, “NOTCH3 ANTIBODIES AND USES THEREOF” (ONCOMED PHARMACEUTICALS, INC., priority 2014, published 2017)

Key:
[1] = test system: OMP-PN08 pancreatic tumor; test: Pancreatic tumor xenograft growth in vivo, OMP-PN08; parameters: species or system human; details: OMP-PN8 tumors in NOD/SCID mice; antibody 40 mg/kg every other week, gemcitabine 20 mg/kg weekly
Experimental: (§1) Ten primary patient-derived pancreatic tumor xenografts were tested for efficacy in response to anti-Notch2/3 antibody OMP-59R5 in combination with gemcitabine. These tumors were OMP-PN04, OMP-PN07, OMP-PN08, OMP-PN11, OMP-PN13, OMP-PN16, OMP-PN17, OMP-PN21, OMP-PN23, and OMP-PN25.
In one representative example, OMP-PN8 pancreatic tumor cells (2×10^4) were injected into NOD/SCID mice. Tumors were allowed to grow for 22 days until they reached an average volume of 125 mm^3. Tumor-bearing mice were randomized into 4 groups and treated with control antibody, anti-NOTCH2/3 antibody OMP-59R5, gemcitabine, or a combination of OMP-59R5 and gemcitabine. Antibodies were dosed every other week at 40 mg/kg. Gemcitabine was dosed weekly at 20 mg/kg. Tumor growth was monitored and tumor volumes were measured with electronic calipers on the indicated days post-treatment.

[2] = test system: OMP-PN11 pancreatic tumor; test: Pancreatic tumor xenograft growth in vivo, OMP-PN11; parameters: species or system human; details: OMP-PN11 tumors in NOD/SCID mice; antibody 40 mg/kg every other week, gemcitabine 20 mg/kg weekly
Experimental: as §1
In a second representative example, OMP-PN11 pancreatic tumor cells (5×10^4) were injected into NOD/SCID mice. Tumors were allowed to grow for 21 days until they reached an average volume of 120 mm^3. Tumor-bearing mice were randomized into 4 groups and treated with control antibody, OMP-59R5, gemcitabine, or a combination of OMP-59R5 and gemcitabine. Antibodies were dosed every other week at 40 mg/kg. Gemcitabine was dosed weekly at 20 mg/kg. […] Tumor growth was monitored and tumor volumes were measured with electronic calipers on the indicated days post-treatment.

For “OMP-59R5: anti-NOTCH2/3 therapeutic antibody; heavy chain variable region SEQ ID NO:18, light chain variable region SEQ ID NO:26”, the “tumor growth (FIG. 1A)” value [1] was “significantly inhibited tumor growth” and the “tumor growth (FIG. 1B)” value [2] was “no effect”.
